According to PubChem BioAssay AID248 (DTP/NCI, 2004):
“And” between values parts separate entries of the source, which are not always exact repeats. Identical values can stand only once. Inconclusive results and toxic doses are left out. Cut-off read from the data, not from the text of the source: active = T/C of 150% or more; inactive = T/C below 125%.

Test system: L1210 leukemia ip in BDF1 mice, survival T/C
Experiment: NCI In Vivo Anticancer Drug Screen. Data for tumor model L1210 Leukemia (intraperitoneal) in B6D2F1 (BDF1) mice
Conditions: endpoint: mean survival time, higher = longer survival
Summary of the method: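 Value reflects the ratio of survival in compound-treated mice to survival in vehicle-treated controls, with both groups carrying the same transplanted tumor.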

[1] = dose: 25.0 mg/kg/injection, schedule: Q01DX009 (ip), vehicle: Klucel (hydroxypropylcellulose) (HPC)
[2] = dose: 50.0 mg/kg/injection, schedule: Q01DX009 (ip), vehicle: Klucel (hydroxypropylcellulose) (HPC)
[3] = dose: 6.25 mg/kg/injection, schedule: Q01DX009 (ip), vehicle: saline
[4] = dose: 12.5 mg/kg/injection, schedule: Q01DX009 (ip), vehicle: saline
[5] = dose: 25.0 mg/kg/injection, schedule: Q01DX009 (ip), vehicle: saline
[6] = dose: 100.0 mg/kg/injection, schedule: Q04DX002 (ip), vehicle: saline with Tween-80
[7] = dose: 200.0 mg/kg/injection, schedule: Q04DX002 (ip), vehicle: saline with Tween-80
[8] = dose: 400.0 mg/kg/injection, schedule: Q04DX002 (ip), vehicle: saline with Tween-80
[9] = dose: 100.0 mg/kg/injection, schedule: Q04DX003 (ip), vehicle: saline with Tween-80
[10] = dose: 200.0 mg/kg/injection, schedule: Q04DX003 (ip), vehicle: saline with Tween-80
[11] = dose: 100.0 mg/kg/injection, schedule: Q01DX001 (ip), vehicle: carboxymethylcellulose (CMC)
[12] = dose: 200.0 mg/kg/injection, schedule: Q01DX001 (ip), vehicle: carboxymethylcellulose (CMC)
[13] = dose: 100.0 mg/kg/injection, schedule: Q01DX001 (ip), vehicle: saline
[14] = dose: 200.0 mg/kg/injection, schedule: Q01DX001 (ip), vehicle: saline
[15] = dose: 400.0 mg/kg/injection, schedule: Q01DX001 (ip), vehicle: saline
[16] = dose: 100.0 mg/kg/injection, schedule: Q01DX009 (ip), vehicle: saline with Tween-80
[17] = dose: 200.0 mg/kg/injection, schedule: Q01DX009 (ip), vehicle: saline with Tween-80
[18] = dose: 400.0 mg/kg/injection, schedule: Q01DX009 (ip), vehicle: saline with Tween-80
[19] = dose: 100.0 mg/kg/injection, schedule: Q01DX009 (ip), vehicle: Klucel (hydroxypropylcellulose) (HPC)
[20] = dose: 100.0 mg/kg/injection, schedule: Q04DX003 (ip), vehicle: Klucel (hydroxypropylcellulose) (HPC)
[21] = dose: 200.0 mg/kg/injection, schedule: Q04DX003 (ip), vehicle: Klucel (hydroxypropylcellulose) (HPC)
[22] = dose: 400.0 mg/kg/injection, schedule: Q04DX003 (ip), vehicle: Klucel (hydroxypropylcellulose) (HPC)
[23] = dose: 200.0 mg/kg/injection, schedule: Q01DX009 (ip), vehicle: Klucel (hydroxypropylcellulose) (HPC)
[24] = dose: 400.0 mg/kg/injection, schedule: Q01DX009 (ip), vehicle: Klucel (hydroxypropylcellulose) (HPC)
[25] = dose: 100.0 mg/kg/injection, schedule: Q01DX001 (ip), vehicle: saline with Tween-80
[26] = dose: 200.0 mg/kg/injection, schedule: Q01DX001 (ip), vehicle: saline with Tween-80
[27] = dose: 400.0 mg/kg/injection, schedule: Q01DX001 (ip), vehicle: saline with Tween-80
[28] = dose: 400.0 mg/kg/injection, schedule: Q04DX003 (ip), vehicle: saline with Tween-80

Measured: T/C

CC(=O)OCC(=O)[C@@]1(O)CC[C@H]2[C@@H]3CCC4=CC(=O)C=C[C@]4(C)[C@H]3C(=O)C[C@@]21C
inactive: dose: 12.5 mg/kg/injection, schedule: Q01DX009 (ip), vehicle: Klucel (hydroxypropylcellulose) (HPC) 93 % of control | [1] 98 % of control | [2] 103 % of control | dose: 75.0 mg/kg/injection, schedule: Q01DX009 (ip), vehicle: Klucel (hydroxypropylcellulose) (HPC) 100 % of control | dose: 115.0 mg/kg/injection, schedule: Q01DX009 (ip), vehicle: Klucel (hydroxypropylcellulose) (HPC) 98 % of control | dose: 170.0 mg/kg/injection, schedule: Q01DX009 (ip), vehicle: Klucel (hydroxypropylcellulose) (HPC) 103 % of control | dose: 255.0 mg/kg/injection, schedule: Q01DX009 (ip), vehicle: Klucel (hydroxypropylcellulose) (HPC) 86 % of control

O=C(CC1(Cl)C(F)(F)C(F)(F)C1(F)F)c1ccccc1
inactive: [3] 94 % of control | [4] 94 % of control | dose: 25.0 mg/kg/injection, schedule: Q01DX009 (ip), vehicle: saline with Tween-80 94 % of control | [5] 100 % of control

CN1CC(=O)N2c3ccccc3CC2C1=O (stereo unspecified)
inactive: [6] 102 % of control | [7] 113 % of control | [8] 102 % of control

CC(=O)Nc1ccc(NCc2cnc3nc(N)nc(N)c3n2)cc1
inactive: dose: 20.0 mg/kg/injection, schedule: Q01DX009 (ip), vehicle: Klucel (hydroxypropylcellulose) (HPC) 96 % of control | dose: 40.0 mg/kg/injection, schedule: Q01DX009 (ip), vehicle: Klucel (hydroxypropylcellulose) (HPC) 104 % of control | dose: 80.0 mg/kg/injection, schedule: Q01DX009 (ip), vehicle: Klucel (hydroxypropylcellulose) (HPC) 96 % of control

O=C(Nc1ccc([N+](=O)[O-])cc1O)c1ccccc1
inactive: [9] 92 % of control | [10] 92 % of control

COc1ccc(C(=O)OCc2ccccc2CN2CCCCC2C)cc1 (stereo unspecified)
inactive: dose: 100.0 mg/kg/injection, schedule: Q04DX002 (ip), vehicle: saline 94 % of control | dose: 200.0 mg/kg/injection, schedule: Q04DX002 (ip), vehicle: saline 108 % of control | dose: 400.0 mg/kg/injection, schedule: Q04DX002 (ip), vehicle: saline 86 % of control

ClCCN(CCCl)c1ccc(C=Nc2cccc(Cl)c2)cc1
inactive: dose: 50.0 mg/kg/injection, schedule: Q01DX001 (ip), vehicle: carboxymethylcellulose (CMC) 100 % of control | [11] 100 % of control | [12] 105 % of control | dose: 400.0 mg/kg/injection, schedule: Q01DX001 (ip), vehicle: carboxymethylcellulose (CMC) 105 % of control

Nc1ncnc2c1ncn2C1OC(CO)C(S)C1O (stereo unspecified)
inactive: [11] 105 % of control | [12] 92 % of control

O=[N+]([O-])c1c[nH]c2[nH]cnc(=S)c12
inactive: [11] 102 % of control | [12] 87 % of control

COc1cc(C)cc(C(=O)O)c1
inactive: [6] 97 % of control | [7] 101 % of control | [8] 101 % of control

CC(=O)N/N=C(/C)C1CC2CCC1C2 (stereo unspecified)
inactive: [13] 104 % of control | [14] 106 % of control | [15] 112 % of control

COC(=O)C(=C(c1ccccc1)c1ccccc1)c1ccccc1
inactive: [9] 90 % of control | [10] 90 % of control

CN1CCC(OC2c3ccccc3CCc3ccccc32)CC1
inactive: dose: 3.12 mg/kg/injection, schedule: Q01DX009 (ip), vehicle: saline 109 % of control | [3] 108 % of control | [4] 106 % of control | [5] 111 % of control | dose: 25.0 mg/kg/injection, schedule: Q04DX003 (ip), vehicle: saline 100 % of control | dose: 50.0 mg/kg/injection, schedule: Q01DX009 (ip), vehicle: saline 117 % of control | dose: 50.0 mg/kg/injection, schedule: Q04DX003 (ip), vehicle: saline 103 % of control | dose: 100.0 mg/kg/injection, schedule: Q01DX009 (ip), vehicle: saline 88 % of control | dose: 100.0 mg/kg/injection, schedule: Q04DX003 (ip), vehicle: saline 86 % of control

CCOP(=S)(OCC)Oc1cccc(NC(=O)CC)c1
inactive: [16] 102 % of control | [17] 104 % of control | [18] 93 % of control

O=[N+]([O-])c1ccc(N2CCC(CCCC3CCN(c4ccc([N+](=O)[O-])cc4[N+](=O)[O-])CC3)CC2)c([N+](=O)[O-])c1
inactive: [1] 101 % of control | [2] 93 % of control | [19] 95 % of control and 105 % of control | [20] 98 % of control | [21] 97 % of control | [22] 104 % of control

CCCCNC(=O)Nc1cccc(C)c1C
inactive: [19] 101 % of control | [20] 95 % of control | [23] 94 % of control | [21] 93 % of control | [24] 93 % of control | [22] 97 % of control

CCC(=O)c1ccc(O)cc1
inactive: [20] 102 % of control | [21] 102 % of control | [22] 102 % of control

CCCCN(CC)/N=N/c1nc[nH]c1C(N)=O
inactive: [25] 95 % of control | [16] 117 % of control | [9] 94 % of control | [26] 101 % of control | [17] 124 % of control | [10] 110 % of control | [27] 116 % of control | [18] 88 % of control | [28] 103 % of control

COc1ccccc1NC1=C(NC(C)=O)C(=O)c2ccccc2C1=O
inactive: [9] 95 % of control | [10] 95 % of control | [28] 97 % of control

CCOc1ccccc1N1C(=O)CSC1=S
inactive: dose: 200.0 mg/kg/injection, schedule: Q04DX002 (ip), vehicle: other 117 % of control | dose: 400.0 mg/kg/injection, schedule: Q04DX002 (ip), vehicle: other 95 % of control

N#C/C(=C(/Cc1ccc(F)cc1)NP(=O)(c1ccccc1)c1ccccc1)c1ccc(F)cc1
inactive: dose: 100.0 mg/kg/injection, schedule: Q01DX001 (ip), vehicle: steriod suspending solution 101 % of control | dose: 200.0 mg/kg/injection, schedule: Q01DX001 (ip), vehicle: steriod suspending solution 90 % of control

O=C(COc1ccccc1)NC(=S)Nc1ccc(F)c([N+](=O)[O-])c1
inactive: [25] 113 % of control | [16] 100 % of control and 86 % of control | [6] 94 % of control and 119 % of control | [26] 98 % of control | [17] 99 % of control and 116 % of control | [7] 102 % of control and 103 % of control | [27] 95 % of control | [18] 102 % of control | [8] 104 % of control and 87 % of control

C#CCNc1ccc(C(=O)OCC)cc1
inactive: dose: 100.0 mg/kg/injection, schedule: Q04DX002 (ip), vehicle: gum acacia 99 % of control | dose: 200.0 mg/kg/injection, schedule: Q04DX002 (ip), vehicle: gum acacia 108 % of control | dose: 400.0 mg/kg/injection, schedule: Q04DX002 (ip), vehicle: gum acacia 92 % of control

O=S1(=O)C(C(O)(c2ccccc2)c2ccccc2)CCC1C(O)(c1ccccc1)c1ccccc1 (stereo unspecified)
inactive: [19] 98 % of control | [20] 102 % of control | [23] 98 % of control | [21] 93 % of control | [24] 93 % of control | [22] 105 % of control

C1CCCC(NNC2CCCCCCC2)CCC1
inactive: [13] 94 % of control

C[C@H]1/C(=C/C(=O)OCCN(C)C)CC[C@H]2[C@H]1C(=O)C[C@H]1C(C)(C)[C@@H](O)CC[C@]21C
inactive: dose: 5.0 mg/kg/injection, schedule: Q01DX001 (ip), vehicle: other 106 % of control | dose: 10.0 mg/kg/injection, schedule: Q01DX001 (ip), vehicle: other 97 % of control | dose: 20.0 mg/kg/injection, schedule: Q01DX001 (ip), vehicle: other 97 % of control

C(=N\N1CCN(/N=C/c2ccc(OCc3ccccc3)cc2)CC1)/c1ccc(OCc2ccccc2)cc1
inactive: [13] 102 % of control | [14] 96 % of control | [15] 93 % of control
